The text below walks through data of publication PMC6934184, “Selective DNA-PKcs inhibition extends the therapeutic index of localized radiotherapy and chemotherapy” (The Journal of Clinical Investigation, 2019).

Each structure is given as a SMILES string.

The target of the assay is T1, PASK (Homo sapiens, UniProt Q96RG2).
T1 construct: purchased Thermo Fisher Scientific (Life Technologies) SelectScreen
Briefly: SelectScreen Z'LYTE. It is filed as biochemical. In a few lines:
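SelectScreen broad panel; activity (Z'LYTE, Adapta) plus binding formats. ATP: Km app for CSF1R Z'LYTE; 10 for CAMK1 Adapta. Readout = % per kinase.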

T1 sequence (Q96RG2 whole entry): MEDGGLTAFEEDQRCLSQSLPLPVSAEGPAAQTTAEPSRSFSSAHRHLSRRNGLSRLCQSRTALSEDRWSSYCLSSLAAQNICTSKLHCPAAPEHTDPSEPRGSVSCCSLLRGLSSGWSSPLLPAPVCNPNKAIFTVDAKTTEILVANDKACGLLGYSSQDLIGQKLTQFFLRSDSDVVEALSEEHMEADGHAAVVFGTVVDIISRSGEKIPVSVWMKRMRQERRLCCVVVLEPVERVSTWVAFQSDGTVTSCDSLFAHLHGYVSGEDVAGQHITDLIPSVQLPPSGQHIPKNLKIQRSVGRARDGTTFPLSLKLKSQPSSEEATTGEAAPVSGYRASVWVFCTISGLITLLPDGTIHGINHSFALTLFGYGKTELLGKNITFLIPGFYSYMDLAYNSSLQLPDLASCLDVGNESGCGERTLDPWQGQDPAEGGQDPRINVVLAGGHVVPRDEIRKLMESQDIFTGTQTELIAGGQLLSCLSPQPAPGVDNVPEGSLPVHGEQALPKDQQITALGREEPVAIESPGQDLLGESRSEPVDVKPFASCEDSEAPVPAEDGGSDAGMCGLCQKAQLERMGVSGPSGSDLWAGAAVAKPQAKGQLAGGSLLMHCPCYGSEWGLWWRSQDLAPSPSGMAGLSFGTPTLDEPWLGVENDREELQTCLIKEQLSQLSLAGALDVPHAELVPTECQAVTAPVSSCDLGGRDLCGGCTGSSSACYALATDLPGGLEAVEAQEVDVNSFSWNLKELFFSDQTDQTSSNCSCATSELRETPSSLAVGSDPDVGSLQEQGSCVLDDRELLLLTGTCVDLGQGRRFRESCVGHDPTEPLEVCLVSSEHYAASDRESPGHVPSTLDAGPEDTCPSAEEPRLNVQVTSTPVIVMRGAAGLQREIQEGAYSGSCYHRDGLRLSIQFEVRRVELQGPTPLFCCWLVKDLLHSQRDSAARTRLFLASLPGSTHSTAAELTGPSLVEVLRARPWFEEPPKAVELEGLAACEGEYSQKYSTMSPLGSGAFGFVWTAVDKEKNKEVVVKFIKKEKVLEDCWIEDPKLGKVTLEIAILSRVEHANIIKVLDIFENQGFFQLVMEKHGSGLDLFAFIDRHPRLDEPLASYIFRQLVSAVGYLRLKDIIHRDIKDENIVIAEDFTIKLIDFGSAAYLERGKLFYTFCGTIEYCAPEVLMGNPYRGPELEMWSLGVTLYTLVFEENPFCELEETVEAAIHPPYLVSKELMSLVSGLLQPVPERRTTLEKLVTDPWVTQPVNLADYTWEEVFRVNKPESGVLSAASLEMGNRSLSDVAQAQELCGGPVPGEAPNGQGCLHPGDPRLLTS

In the case of `CN(C(=O)CN1CCOCC1)c1ccc2sc3c(-c4cccc5c(=O)cc(N6CC7CCC(C6)O7)oc45)cccc3c2c1` [NU5455], the inhibition (commonly the share of the control response that was lost under treatment) at 1 µM came to 2.3%.
